Results published in patent US20240417405A1, “Substituted Spiro Derivatives” (Janssen Pharmaceutica NV, priority 2021, published 2024).

Columns and labels:
[1] = target: T1, menin/MLL (terbium chelate-labeled menin, FITC-MBM1 peptide) (Homo sapiens, UniProt O00255, T541A); assay: Menin/MLL homogenous time-resolved fluorescence (HTRF) assay; format: binding; settings: 30 min incubation
T1 construct: Menin (a.a 1-610-6xhis tag)
T1 sequence (O00255 with tags, fused parts or gaps T541A): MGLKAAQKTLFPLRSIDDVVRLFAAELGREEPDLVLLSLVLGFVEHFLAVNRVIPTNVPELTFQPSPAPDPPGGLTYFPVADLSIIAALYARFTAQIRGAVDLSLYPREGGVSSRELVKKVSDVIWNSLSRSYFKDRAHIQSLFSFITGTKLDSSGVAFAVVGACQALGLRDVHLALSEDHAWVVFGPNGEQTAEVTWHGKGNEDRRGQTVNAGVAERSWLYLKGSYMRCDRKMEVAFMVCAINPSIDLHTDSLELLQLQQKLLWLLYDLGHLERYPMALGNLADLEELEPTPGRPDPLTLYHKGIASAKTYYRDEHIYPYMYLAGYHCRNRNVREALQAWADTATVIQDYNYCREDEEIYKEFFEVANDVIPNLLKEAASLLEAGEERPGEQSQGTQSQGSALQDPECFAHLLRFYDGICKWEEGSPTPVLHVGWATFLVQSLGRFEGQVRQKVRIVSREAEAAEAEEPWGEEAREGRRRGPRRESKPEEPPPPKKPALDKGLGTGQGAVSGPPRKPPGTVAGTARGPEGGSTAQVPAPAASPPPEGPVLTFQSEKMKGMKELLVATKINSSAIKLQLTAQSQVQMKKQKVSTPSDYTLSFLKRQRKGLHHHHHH
Description: 1) Menin/MLL Homogenous Time-Resolved Fluorescence (HTRF) Assay
To an untreated, white 384-well microtiter plate was added 40 nL 200× test compound in DMSO and 4 μL 2× terbium chelate-labeled menin (vide infra for preparation) in assay buffer (40 mM Tris.HCl, pH 7.5, 50 mM NaCl, 1 mM DTT (dithiothreitol) and 0.05% Pluronic F-127). After incubation of test compound and terbium chelate-labeled menin for 30 min at ambient temperature, 4 μL 2× FITC-MBM1 peptide (FITC-β-alanine-SARWRFPARPGT-NH2 (SEQ ID NO: 3)) (“FITC” means fluorescein isothiocyanate) in assay buffer was added, the microtiter plate centrifuged at 1000 rpm for 1 min and the assay mixtures incubated for 15 min at ambient temperature. The relative amount of menin FITC-MBM1 complex present in an assay mixture is determined by measuring the homogenous time-resolved fluorescence (HTRF) of the terbium/FITC donor/acceptor fluorophore pair using an EnVision microplate reader (ex. 337 nm/terbium em. 490 nm/FITC em. 520 nm) at ambient temperature. The degree of fluorescence resonance energy transfer (the HTRF value) is expressed as the ratio of the fluorescence emission intensities of the FITC and terbium fluorophores (F^em 520 nm/F^em 490 nm). The final concentrations of reagents in the binding assay are 200 pM terbium chelate-labeled menin, 75 nM FITC-MBM1 peptide and 0.5% DMSO in assay buffer. Dose-response titrations of test compounds are conducted using an 11 point, four-fold serial dilution scheme, starting typically at 10 μM.
Compound potencies were determined by first calculating % inhibition at each compound concentration according to equation 1:
% inhibition=((HC−LC)−(HTRF^compound−LC))/(HC−LC))*100 (Eqn 1)
Where LC and HC are the HTRF values of the assay in the presence or absence of a saturating concentration of a compound that competes with FITC-MBM1 for binding to menin, and HTRF^compound is the measured HTRF value in the presence of the test compound. HC and LC HTRF values represent an average of at least 10 replicates per plate.
% inhibition=Bottom+(Top−Bottom)/(1+10^((logIC50−log[cmpd])*h)) (Eqn 2)
Where Bottom and Top are the lower and upper asymptotes of the dose-response curve, respectively, IC50 is the concentration of compound that yields 50% inhibition of signal and h is the Hill coefficient. IC50 values below 0.1 nM in the HTRF assay were reported as 0.1 nM in the Table below (detection limit).
Preparation of Terbium cryptate labeling of Menin: Menin (a.a 1-610-6xhis tag (“6xhis tag” disclosed as SEQ ID NO: 2), 2.3 mg/mL in 20 mM Hepes (2-[4-(2-Hydroxyethyl)-1-piperazinyl]ethane sulfonic acid), 80 mM NaCl, 5 mM DTT (Dithiothreitol), pH 7.5) was labeled with terbium cryptate as follows. 200 μg of Menin was buffer exchanged into 1× Hepes buffer. 6.67 μM Menin was incubated with 8-fold molar excess NHS (N-hydroxysuccinimide)-terbium cryptate for 40 minutes at room temperature. Half of the labeled protein was purified away from free label by running the reaction over a NAP5 column with elution buffer (0.1 M Hepes, pH 7+0.1% BSA (bovine serum albumin)). The other half was eluted with 0.1 M phosphate buffered saline (PBS), pH7. 400 μl of eluent was collected for each, aliquoted and frozen at −80° C. The final concentration of terbium-labeled Menin protein was 115 μg/mL in Hepes buffer and 85 μg/mL in PBS buffer, respectively.

[2] = test system: MOLM14 cells; assay: Proliferation assay, spheroid-like growth, MOLM14 (MLL-AF9 rearranged); format: cell-based, human; settings: Homo sapiens, MOLM-14, 192 h, 8 days, confluence as measure of spheroid size, read-out: spheroid assay_OneTime MOLM14 IC50
Description: The anti-proliferative effect of menin/MLL protein/protein interaction inhibitor test compounds was assessed in human leukemia cell lines. The cell line MOLM14 harbors a MLL translocation and expresses the MLL fusion proteins MLL-AF9, respectively, as well as the wildtype protein from the second allele. […] KO-52 was used as a control cell line containing two MLL (KMT2A) wildtype alleles in order to exclude compounds that display general cytotoxic effects.
MOLM14 cells were cultured in RPMI-1640 (Sigma Aldrich) supplemented with 10% heat-inactivated fetal bovine serum (HyClone), 2 mM L-glutamine (Sigma Aldrich) and 50 μg/ml gentamycin (Gibco). KO-52 cell lines were propagated in alpha-MEM (Sigma Aldrich) supplemented with 20% heat-inactivated fetal bovine serum (HyClone), 2 mM L-glutamine (Sigma Aldrich) and 50 μg/ml gentamycin (Gibco).
In order to assess the anti-proliferative effects, 200 MOLM14 cells, or 300 KO-52 cells were seeded in 200 μl media per well in 96-well round bottom, ultra-low attachment plates (Costar, catalogue number 7007). Cell seeding numbers were chosen based on growth curves to ensure linear growth throughout the experiment. Test compounds were added at different concentrations and the DMSO content was normalized to 0.3%. Cells were incubated for 8 days at 37° C. and 5% CO2. Spheroid like growth was measured in real-time by live-cell imaging (IncuCyteZOOM, Essenbio, 4× objective) acquiring images at day 8. Confluence (%) as a measure of spheroid size was determined using an integrated analysis tool.
In order to determine the effect of the test compounds over time, the confluence in each well as a measure of spheroid size, was calculated. Confluence of the highest dose of a reference compound was used as baseline for the LC (Low control) and the confluence of DMSO treated cells was used as 0% cytotoxicity (High Control, HC).
Absolute IC50 values were calculated as percent change in confluence as follows:
LC=Low Control: cells treated with e.g. 1 μM of the cytotoxic agent staurosporin, or e.g. cells treated with a high concentration of an alternative reference compound
GraphPad Prism (version 7.00) was used to calculate the IC50. Dose-response equation was used for the plot of % Effect vs Log 10 compound concentration with a variable slope and fixing the maximum to 100% and the minimum to 0%.

Row | SMILES | IC50 [1] [nM] | IC50 [2] [nM]
1 | CC(=O)N1CCCN([C@H]2C[C@@H]([C@@H](C(C)C)N3CC4(CCN(c5ncnnc5Oc5ccc(F)cc5-c5cncnc5C5CC5)C4)C3)C2)CC1 (single isomer, unassigned) [Compound 61] | 0.2 | 23
2 | CC(C)[C@H]([C@H]1C[C@@H](N2CCC3(CCO3)C2)C1)N1CC2(CCN(c3ncnnc3Oc3ccc(F)cc3-c3cncnc3C3CC3)C2)C1 (single isomer, unassigned) [Compound 212] | 0.2 | 8
3 | CC(C)[C@H]([C@H]1C[C@@H](NC2CS(=O)(=O)C2)C1)N1CC2(CCN(c3ncnnc3Oc3ccc(F)cc3-c3cncnc3C3CC3)C2)C1 (single isomer, unassigned) [Compound 235] | 0.5 | 3
4 | CC(C)[C@H]([C@H]1C[C@@H](N2CCNC(=O)C2)C1)N1CC2(CCN(c3ncnnc3Oc3ccc(F)cc3-c3cncnc3C3CC3)C2)C1 (single isomer, unassigned) [Compound 240] | 1.9 | 270
5 | CC(C)[C@H]([C@H]1C[C@H](N2CCNC(=O)C2)C1)N1CC2(CCN(c3ncnnc3Oc3ccc(F)cc3-c3cncnc3C3CC3)C2)C1 (single isomer, unassigned) [Compound 241] | 2.1 | 510
6 | CC(C)[C@@H]([C@H]1C[C@@H](N2C[C@H]3COC[C@H]3C2)C1)N1CC2(CCN(c3ncnnc3Oc3ccc(F)cc3-c3cncnc3C3CC3)C2)C1 (single isomer, unassigned) [Compound 244] | 1.6 | 130
7 | CC(C)[C@H]([C@H]1C[C@@H](N2CC3(CCCO3)C2)C1)N1CC2(CCN(c3ncnnc3Oc3ccc(F)cc3-c3cncnc3C3CC3)C2)C1 (single isomer, unassigned) [Compound 246] | 0.3 | 180
8 | CC(C)[C@H]([C@H]1C[C@@H](N2CC3(CCOC3)C2)C1)N1CC2(CCN(c3ncnnc3Oc3ccc(F)cc3-c3cncnc3C3CC3)C2)C1 (single isomer, unassigned) [Compound 247] | 0.1 | 9
9 | CC(C)[C@H]([C@H]1C[C@@H](N2CC3(CCS(=O)(=O)CC3)C2)C1)N1CC2(CCN(c3ncnnc3Oc3ccc(F)cc3-c3cncnc3C3CC3)C2)C1 (single isomer, unassigned) [Compound 249] | 0.1 | 9
10 | COC1(C)CN([C@H]2C[C@@H]([C@H](C(C)C)N3CC4(CCN(c5ncnnc5Oc5ccc(F)cc5-c5nnccc5C5CC5)C4)C3)C2)C1 (single isomer, unassigned) [Compound 263] | 0.2 | 9
11 | CC(C)[C@@H]([C@H]1C[C@@H](N2CC3(CCCO3)C2)C1)N1CC2(CCN(c3ncnnc3Oc3ccc(F)cc3-c3nnccc3C3CC3)C2)C1 (single isomer, unassigned) [Compound 265] | 0.1 | 11
12 | CC(C)[C@@H]([C@H]1C[C@@H](N2CC3(CCCCO3)C2)C1)N1CC2(CCN(c3ncnnc3Oc3ccc(F)cc3-c3nnccc3C3CC3)C2)C1 (single isomer, unassigned) [Compound 266] | 0.1 | < 2
13 | CC(C)[C@H]([C@H]1C[C@@H](N2CC3(CCCCO3)C2)C1)N1CC2(CCN(c3ncnnc3Oc3ccc(F)cc3-c3nnccc3C3CC3)C2)C1 (single isomer, unassigned) [Compound 267] | 1.3 | 180
14 | CC(C)[C@@H]([C@H]1C[C@@H](N2CCC3(CCO3)C2)C1)N1CC2(CCN(c3ncnnc3Oc3ccc(F)cc3-c3nnccc3C3CC3)C2)C1 (single isomer, unassigned) [Compound 268] | 0.1 | 6
15 | CC(C)[C@H]([C@H]1C[C@@H](N2CCC3(CCO3)C2)C1)N1CC2(CCN(c3ncnnc3Oc3ccc(F)cc3-c3nnccc3C3CC3)C2)C1 (single isomer, unassigned) [Compound 269] | 5.6 | > 940
16 | CC(C)[C@@H]([C@H]1C[C@@H](N2CCC3(CCCO3)C2)C1)N1CC2(CCN(c3ncnnc3Oc3ccc(F)cc3-c3nnccc3C3CC3)C2)C1 (single isomer, unassigned) [Compound 270] | 0.2 | 2
17 | CC(C)[C@@H]([C@H]1C[C@@H](NC2CC2)C1)N1CC2(CCN(c3ncnnc3Oc3ccc(F)cc3-c3nnccc3C3CC3)C2)C1 (single isomer, unassigned) [Compound 272] | 0.1 | 21
18 | CC(=O)N1CCN([C@H]2C[C@@H]([C@H](C(C)C)N3CC4(CCN(c5ncnnc5Oc5ccc(F)cc5-c5nnccc5C5CC5)C4)C3)C2)CC1 (single isomer, unassigned) [Compound 277] | 0.9 | 250
19 | CC(C)[C@@H]([C@H]1C[C@@H](N2C[C@H]3COC[C@H]3C2)C1)N1CC2(CCN(c3ncnnc3Oc3ccc(F)cc3-c3cnncc3C3CC3)C2)C1 (single isomer, unassigned) [Compound 278] | 0.1 | 2
